Measured values as given in US11834698B2, “Process for determining enzyme activity in a cell by activity-based reporter gene technology (ABRGT)” (INDIAN INSTITUTE OF SCIENCE EDUCATION AND RESEARCH, priority 2018, dated 2023).

System: enhanced green fluorescent protein (EGFP)
Experiment: EGFP control for random GFP-rhodamine interaction in MCF-7 cells
Format: cell-based
Conditions: MCF-7, EGFP plasmid, STS 1 μM 4 h, labelled with probe 1
Procedure: FIG. 2 depicts (a) a schematic representation of AbRGT in determining the specific activation of caspase-3 GFPspark tagged enzyme by FRET effect utilizing Rh-VAD-FMK (probe 1). (b) The fluorescence signal was collected in GFP, FRET and Rhodamine (Rh) channels. MCF-7 cells transfected with caspase-3 GFPspark treated with (i) 1 μM STS for 4 h or (ii) 1 μg/ml TRAIL for 5 h and then labelled with probe 1. (iii) Un-transfected MCF-7 cells were treated with 1 μM STS for 4 h and then labelled with the probe 1. MCF-7 cells transfected with enhanced green fluorescent protein (EGFP) plasmid treated (iv) with 1 μM STS or (v) without STS for 4 h and then labelled with probe 1, scale bar, 10 a.u. […] Images for GFP and rhodamine fluorescence signals were collected in GFP and FRET channels pre- and post-bleaching of rhodamine signals. (d) Quantification of change in GFP fluorescence intensity after rhodamine photo-bleaching in both unbleached control region and rhodamine bleached region, region of interest (ROI), area under the white square. […]
To rule out that the obtained FRET signal in [FIG. 2b (i)] is not because of random physical interaction between GFPspark and rhodamine dye, MCF-7 cells were transfected with a plasmid encoding for enhanced green fluorescent protein (EGFP). […] The calculated FRET efficiency for (n=15 cells) is 35±1%. […] The calculated FRET efficiency was 35% [FIG. 7(b)]. […]

For “Rhodamine-VAD-fluoromethyl ketone [probe 1]”, the “fluorescence signal in FRET channel, EGFP transfected cells” value was “no fluorescence signal was observed”.
